# ChEMBL document CHEMBL3885881, “DrugMatrix”
# Organism: Rattus norvegicus
# Test: DrugMatrix - Regimen: Daily Repeat
# Format: toxicity, organism-based, Sprague-Dawley
# Set-up: regimen Daily Repeat, gender Male, age 6-8 weeks
# Conditions: in vivo, iv, vehicle 100 % SALINE; for ABSOLUTE BASOPHIL / ABSOLUTE EOSINOPHIL / ABSOLUTE LYMPHOCYTE / ABSOLUTE MONOCYTE / ABSOLUTE SEGMENTED NEUTROPHIL / BASOPHIL / EOSINOPHIL / ERYTHROCYTE COUNT / HEMATOCRIT / HEMOGLOBIN / LEUKOCYTE COUNT / LYMPHOCYTE / MEAN CORPUSCULAR HEMOGLOBIN / MEAN CORPUSCULAR HEMOGLOBIN CONCENTRATION / MEAN CORPUSCULAR VOLUME / MONOCYTE / NEUTROPHIL / NUCLEATED RED BLOOD CELLS / PLATELET COUNT: tissue Blood; for ALANINE AMINOTRANSFERASE / ALBUMIN / ALKALINE PHOSPHATASE / ASPARTATE AMINOTRANSFERASE / BLOOD UREA NITROGEN / CARBON DIOXIDE / CHLORIDE / CHOLESTEROL / CREATINE PHOSPHOKINASE / CREATININE / GLUCOSE / LACTATE DEHYDROGENASE / LIPASE / PHOSPHORUS / POTASSIUM / SODIUM / TOTAL BILIRUBIN / TOTAL PROTEIN / URIC ACID: tissue Plasma
# [1] = 23 mg/kg, 120 h, dose level High, time 5 day
# [2] = […], 72 h, dose 2.3 mg/Kg, dose level Low, time 3 day
# [3] = […], 120 h, dose 2.3 mg/Kg, dose level Low, time 5 day
structure (smiles),measurement,setting,value
COC(=O)C[C@](O)(CCC(C)(C)O)C(=O)O[C@@H]1C(OC)=C[C@]23CCCN2CCc2cc4c(cc2[C@H]13)OCO4 [HARRINGTONINE],ABSOLUTE BASOPHIL,[1],0 CELLS/uL
same,ABSOLUTE EOSINOPHIL,[1],0 CELLS/uL
same,ABSOLUTE LYMPHOCYTE,[1],5612 CELLS/uL
same,ABSOLUTE MONOCYTE,[1],134.67 CELLS/uL
same,ABSOLUTE SEGMENTED NEUTROPHIL,[1],53.33 CELLS/uL
same,BASOPHIL,[1],0%
same,EOSINOPHIL,[1],0%
same,ERYTHROCYTE COUNT,[1],5.85 x10E6/uL
same,HEMATOCRIT,[1],36.17%
same,HEMOGLOBIN,[1],13.93 G/DL
same,LEUKOCYTE COUNT,[1],5.8 x10E3/uL
same,LYMPHOCYTE,[1],96.67%
same,MEAN CORPUSCULAR HEMOGLOBIN,[1],23.83 pg
same,MEAN CORPUSCULAR HEMOGLOBIN CONCENTRATION,[1],38.53 G/DL
same,MEAN CORPUSCULAR VOLUME,[1],61.87 fL
same,MONOCYTE,[1],2.33%
same,NEUTROPHIL,[1],1%
same,NUCLEATED RED BLOOD CELLS,[1],0 /100WBC
same,PLATELET COUNT,[1],414 x10E3/uL
same,ALANINE AMINOTRANSFERASE,[1],83 u/L
same,ALBUMIN,[1],3.47 G/DL
same,ALKALINE PHOSPHATASE,[1],214 u/L
same,ASPARTATE AMINOTRANSFERASE,[1],226.33 u/L
same,BLOOD UREA NITROGEN,[1],15.67 mg/dL
same,CARBON DIOXIDE,[1],24 mmol/L
same,CHLORIDE,[1],100.33 MEQ/L
same,CHOLESTEROL,[1],71 mg/dL
same,CREATINE PHOSPHOKINASE,[1],222 u/L
same,CREATININE,[1],0.27 mg/dL
same,GLUCOSE,[1],151.67 mg/dL
same,LACTATE DEHYDROGENASE,[1],292.33 u/L
same,LIPASE,[1],7.33 u/L
same,PHOSPHORUS,[1],9.13 mg/dL
same,POTASSIUM,[1],6.23 MEQ/L
same,SODIUM,[1],143.4 MEQ/L
same,TOTAL BILIRUBIN,[1],0.23 mg/dL
same,TOTAL PROTEIN,[1],5.73 G/DL
same,URIC ACID,[1],1.2 mg/dL
same,ABSOLUTE BASOPHIL,[2],0 CELLS/uL
same,ABSOLUTE EOSINOPHIL,[2],41.67 CELLS/uL
same,ABSOLUTE LYMPHOCYTE,[2],11224.33 CELLS/uL
same,ABSOLUTE MONOCYTE,[2],81.33 CELLS/uL
same,ABSOLUTE SEGMENTED NEUTROPHIL,[2],586 CELLS/uL
same,BASOPHIL,[2],0%
same,EOSINOPHIL,[2],0.33%
same,ERYTHROCYTE COUNT,[2],5.44 x10E6/uL
same,HEMATOCRIT,[2],34.9%
same,HEMOGLOBIN,[2],13.83 G/DL
same,LEUKOCYTE COUNT,[2],11.93 x10E3/uL
same,LYMPHOCYTE,[2],94%
same,MEAN CORPUSCULAR HEMOGLOBIN,[2],25.47 pg
same,MEAN CORPUSCULAR HEMOGLOBIN CONCENTRATION,[2],39.63 G/DL
same,MEAN CORPUSCULAR VOLUME,[2],64.17 fL
same,MONOCYTE,[2],0.67%
same,NEUTROPHIL,[2],5%
same,NUCLEATED RED BLOOD CELLS,[2],0 /100WBC
same,PLATELET COUNT,[2],1133.33 x10E3/uL
same,ALANINE AMINOTRANSFERASE,[2],48.67 u/L
same,ALBUMIN,[2],4.13 G/DL
same,ALKALINE PHOSPHATASE,[2],303.67 u/L
same,ASPARTATE AMINOTRANSFERASE,[2],64.33 u/L
same,BLOOD UREA NITROGEN,[2],15.67 mg/dL
same,CARBON DIOXIDE,[2],31.67 mmol/L
same,CHLORIDE,[2],101 MEQ/L
same,CHOLESTEROL,[2],51 mg/dL
same,CREATINE PHOSPHOKINASE,[2],184 u/L
same,CREATININE,[2],0.17 mg/dL
same,GLUCOSE,[2],163 mg/dL
same,LACTATE DEHYDROGENASE,[2],69 u/L
same,LIPASE,[2],8.67 u/L
same,PHOSPHORUS,[2],12.37 mg/dL
same,POTASSIUM,[2],6.49 MEQ/L
same,SODIUM,[2],146.83 MEQ/L
same,TOTAL BILIRUBIN,[2],0.2 mg/dL
same,TOTAL PROTEIN,[2],5.5 G/DL
same,URIC ACID,[2],2 mg/dL
same,ABSOLUTE BASOPHIL,[3],0 CELLS/uL
same,ABSOLUTE EOSINOPHIL,[3],0 CELLS/uL
same,ABSOLUTE LYMPHOCYTE,[3],10385.33 CELLS/uL
same,ABSOLUTE MONOCYTE,[3],95.33 CELLS/uL
same,ABSOLUTE SEGMENTED NEUTROPHIL,[3],1152.67 CELLS/uL
same,BASOPHIL,[3],0%
same,EOSINOPHIL,[3],0%
same,ERYTHROCYTE COUNT,[3],5.81 x10E6/uL
same,HEMATOCRIT,[3],35.2%
same,HEMOGLOBIN,[3],13.83 G/DL
same,LEUKOCYTE COUNT,[3],11.63 x10E3/uL
same,LYMPHOCYTE,[3],90.67%
same,MEAN CORPUSCULAR HEMOGLOBIN,[3],23.83 pg
same,MEAN CORPUSCULAR HEMOGLOBIN CONCENTRATION,[3],39.3 G/DL
same,MEAN CORPUSCULAR VOLUME,[3],60.6 fL
same,MONOCYTE,[3],0.67%
same,NEUTROPHIL,[3],8.67%
same,NUCLEATED RED BLOOD CELLS,[3],0.33 /100WBC
same,PLATELET COUNT,[3],1139 x10E3/uL
same,ALANINE AMINOTRANSFERASE,[3],52 u/L
same,ALBUMIN,[3],4.03 G/DL
same,ALKALINE PHOSPHATASE,[3],408.33 u/L
same,ASPARTATE AMINOTRANSFERASE,[3],89.67 u/L
same,BLOOD UREA NITROGEN,[3],18.67 mg/dL
same,CARBON DIOXIDE,[3],25 mmol/L
same,CHLORIDE,[3],102 MEQ/L
same,CHOLESTEROL,[3],60 mg/dL
same,CREATINE PHOSPHOKINASE,[3],576 u/L
same,CREATININE,[3],0.16 mg/dL
same,GLUCOSE,[3],170.33 mg/dL
same,LACTATE DEHYDROGENASE,[3],158.67 u/L
same,LIPASE,[3],8.67 u/L
same,PHOSPHORUS,[3],12.3 mg/dL
same,POTASSIUM,[3],6.27 MEQ/L
same,SODIUM,[3],145.13 MEQ/L
same,TOTAL BILIRUBIN,[3],0.2 mg/dL
same,TOTAL PROTEIN,[3],5.73 G/DL
same,URIC ACID,[3],1.6 mg/dL
